Test results published in the NIST ThermoML archive (doi:10.1021/je400488x).
± gives the expanded uncertainty stated by the source.

Assays:
[1] = 293.15 K; 101.33 kPa; Liquid; Vibrating tube method
[2] = refractive index (Na D-line) (dimensionless); details: 298.15 K; 101.33 kPa; Liquid; Standard Abbe refractometry

mass density [1] [kg/m3] | refractive index [2] | Compound
739.8 ± 0.4 | 1.3689 ± 0.0005 | COC(C)(C)C [2-methoxy-2-methylpropane]
1328 ± 1 |  | Oc1ccc(O)cc1 [1,4-benzenediol]
